Values after ≈ are worked out from the molar mass of the structure shown.
Assays:
Test in all cases: ≥ marks a high value that may be exact or a test limit, other limits are often not marked, values filed in µg/mL are converted to µM
[1] = test system: Staphylococcus aureus ATCC 29213
[2] = test system: Salmonella enterica subsp. enterica serovar Enteritidis
[3] = test system: Staphylococcus aureus NCTC 8325
[4] = test system: Escherichia coli UB1005
[5] = test system: Salmonella enterica serovar Typhimurium
[6] = test system: Candida albicans
[7] = test system: Staphylococcus epidermidis
[8] = test system: Staphylococcus aureus ATCC 25923
[9] = test system: Pseudomonas aeruginosa H103
[10] = test system: Candida albicans ATCC 90028
[11] = test system: Escherichia coli ATCC 25922
[12] = test system: Staphylococcus aureus NCTC 12493
[13] = test system: Candida albicans NCYC 1467
[14] = test system: Enterococcus faecalis NCTC 12697
[15] = test system: Staphylococcus aureus NCTC 10788
[16] = test system: Escherichia coli NCTC 10418
[17] = test system: Klebsiella pneumoniae ATCC 43816
[18] = test system: Pseudomonas aeruginosa ATCC 27853
[19] = test system: Clavibacter michiganensis subsp. michiganensis DSM 46294
[20] = test system: Pectobacterium carotovorum subsp. carotovorum DSM 30168
[21] = test system: Pseudomonas syringae pv. syringae DSM 10604
[22] = test system: Xanthomonas vesicatoria DSM 50861
[23] = test system: Pseudomonas syringae pv. tomato DC3000
[24] = test system: Staphylococcus aureus 90857
[25] = test system: Pseudomonas corrugata DSM 7228

MIC [3] | MIC [12] | MIC [13] | MIC [14] | MIC [15] | MIC [16] | MIC [17] | MIC [18] | SMILES | further results
 | ≥ 128 µM | ≥ 128 µM | ≥ 128 µM | ≥ 32 µM | 16 µM (≈ 39.3 µg/mL) | ≥ 256 µM | 128 µM (≈ 315 µg/mL) | CC[C@H](C)[C@H](NC(=O)[C@H](C)NC(=O)[C@H](C)NC(=O)[C@@H]1CCCN1C(=O)[C@@H](NC(=O)[C@H](CC(C)C)NC(=O)[C@H](CCCCN)NC(=O)CNC(=O)[C@H](C)NC(=O)[C@H](CS)NC(=O)[C@H](CCCCN)NC(=O)[C@H](CCCCN)NC(=O)[C@H](CO)NC(=O)[C@@H](NC(=O)[C@H](CCCCN)NC(=O)[C@H](CS)NC(=O)[C@@H](NC(=O)[C@H](CCCCN)NC(=O)[C@H](CC(C)C)NC(=O)[C@@H](NC(=O)[C@H](C)NC(=O)CNC(=O)[C@H](CC(C)C)NC(=O)[C@@H](N)Cc1ccccc1)C(C)C)C(C)C)[C@@H](C)CC)C(C)C)C(=O)O [FLGAVLKVCKISKKCAGKLVPAAI] | 
 | ≥ 32 µM | ≥ 64 µM | 16 µM (≈ 41.7 µg/mL) | 16 µM (≈ 41.7 µg/mL) | 8 µM (≈ 20.8 µg/mL) | 8 µM (≈ 20.8 µg/mL) | 16 µM (≈ 41.7 µg/mL) | CC[C@H](C)[C@H](NC(=O)[C@H](CCCCN)NC(=O)[C@H](CO)NC(=O)[C@H](Cc1c[nH]c2ccccc12)NC(=O)[C@H](CC(C)C)NC(=O)CN)C(=O)N[C@@H](CCCCN)C(=O)N[C@@H](CC(=O)O)C(=O)N[C@@H](C)C(=O)N[C@@H](C)C(=O)N[C@@H](CCCCN)C(=O)N[C@H](C(=O)N[C@@H](C)C(=O)NCC(=O)N[C@@H](CCCCN)C(=O)N[C@@H](C)C(=O)N[C@@H](C)C(=O)N[C@@H](CC(C)C)C(=O)NCC(=O)N[C@@H](Cc1ccccc1)C(=O)N[C@H](C(=O)N[C@@H](CC(N)=O)C(=O)N[C@@H](CCC(=O)O)C(=O)N[C@@H](CCSC)C(=O)N[C@H](C(N)=O)C(C)C)C(C)C)[C@@H](C)O [GLWSKIKDAAKTAGKAALGFVNEMV] | 
 | ≥ 32 µM | 4 µM (≈ 8.22 µg/mL) | ≥ 32 µM | 2 µM (≈ 4.11 µg/mL) | ≥ 512 µM | ≥ 512 µM | > 512 µM | CC[C@H](C)[C@H](NC(=O)[C@H](C)NC(=O)[C@H](CO)NC(=O)[C@@H](NC(=O)[C@H](C)NC(=O)[C@H](CCCCN)NC(=O)[C@@H]1CCCN1C(=O)[C@@H](NC(=O)[C@H](CC(C)C)NC(=O)[C@H](CO)NC(=O)[C@H](CC(C)C)NC(=O)[C@@H](N)Cc1ccccc1)[C@@H](C)CC)[C@@H](C)CC)C(=O)N[C@@H](CO)C(=O)N[C@@H](C)C(=O)N[C@@H](CC(C)C)C(=O)N[C@H](C(=O)N[C@@H](CC(N)=O)C(=O)N[C@@H](Cc1cnc[nH]1)C(=O)N[C@@H](Cc1ccccc1)C(N)=O)[C@@H](C)CC [FLSLIPKAISAISALINHF] | 

The next lines start with the molecule.

SMILES | MIC [3] | MIC [12] | MIC [13] | MIC [14] | MIC [15] | MIC [16] | MIC [17] | MIC [18] | further results
CC[C@H](C)[C@H](NC(=O)[C@H](CO)NC(=O)[C@@H]1CCCN1C(=O)[C@H](CC(C)C)NC(=O)[C@@H](NC(=O)[C@H](CCCCN)NC(=O)[C@H](C)NC(=O)[C@H](C)NC(=O)[C@H](CC(C)C)NC(=O)CNC(=O)[C@H](C)NC(=O)[C@@H](NC(=O)[C@@H](NC(=O)[C@@H]1CCCN1C(=O)[C@H](CC(C)C)NC(=O)[C@@H](N)Cc1ccccc1)C(C)C)C(C)C)C(C)C)C(=O)N[C@H](C(=O)N[C@H]1CSSC[C@@H](C(=O)O)NC(=O)[C@H](CCCCN)NC(=O)[C@H](CCCCN)NC(=O)[C@H]([C@@H](C)O)NC(=O)[C@H](C(C)C)NC(=O)[C@H](C)NC1=O)[C@@H](C)CC [FLPVVAGLAAKVLPSIICAVTKKC] | 7 µM (≈ 17.1 µg/mL) |  |  |  |  |  |  |  | MIC [1]: 2.32 µM (≈ 5.65 µg/mL); MIC [2]: ≥ 52.4 µM
CC[C@H](C)[C@H](NC(=O)[C@H](CCCN=C(N)N)NC(=O)[C@H](CC(C)C)NC(=O)[C@H](CCC(N)=O)NC(=O)[C@@H](N)C(C)C)C(=O)N[C@@H](CCCN=C(N)N)C(=O)N[C@H](C(=O)N[C@@H](CCCN=C(N)N)C(=O)N[C@H](C(=O)N[C@H](C(=O)N[C@@H](CCCN=C(N)N)C(=O)N[C@@H](CCCCN)C(N)=O)[C@@H](C)CC)C(C)C)C(C)C [VQLRIRVRVIRK] |  |  |  |  |  |  |  |  | MIC [4]: 1.95 µM (≈ 3 µg/mL); MIC [5]: 3.91 µM (≈ 6 µg/mL); MIC [6]: 3.91 µM (≈ 6 µg/mL); MIC [7]: 1.04 µM (≈ 1.6 µg/mL); MIC [8]: 7.81 µM (≈ 12 µg/mL); MIC [9]: 3.91 µM (≈ 6 µg/mL)
CC[C@H](C)[C@H](N)C(=O)N1CCC[C@H]1C(=O)N[C@@H](Cc1cnc[nH]1)C(=O)N[C@@H](C)C(=O)N[C@H](C(=O)N[C@@H](CCCCN)C(=O)N[C@@H](C)C(=O)N[C@H](C(=O)N[C@@H](CO)C(=O)N[C@@H](CC(=O)O)C(=O)N[C@@H](CC(C)C)C(=O)N[C@H](C(N)=O)[C@@H](C)CC)[C@@H](C)CC)C(C)C [IPHAVKAISDLI] | ≥ 200 µM |  |  |  |  |  |  |  | MIC [10]: ≥ 200 µM; MIC [11]: > 200 µM
CC(C)C[C@H](NC(=O)[C@H](CCCN=C(N)N)NC(=O)[C@H](CCCCN)NC(=O)[C@H](CCCCN)NC(=O)[C@@H](N)CCCN=C(N)N)C(=O)N[C@@H](CCCCN)C(=O)N[C@H](C(=O)N[C@H](C(=O)N[C@@H](CCCCN)C(=O)N[C@@H](CCCN=C(N)N)C(=O)N[C@@H](CC(C)C)C(=O)N[C@H](C(N)=O)C(C)C)C(C)C)C(C)C [RKKRLKVVKRLV] |  |  |  |  |  |  |  |  | MIC [19]: 6.57 µM (≈ 9.99 µg/mL); MIC [20]: 6.57 µM (≈ 9.99 µg/mL); MIC [21]: 3.28 µM (≈ 5 µg/mL); MIC [22]: 6.57 µM (≈ 9.99 µg/mL); MIC [23]: 1.64 µM (≈ 2.5 µg/mL); MIC [24]: ≥ 62.5 µM; MIC [25]: 6.57 µM (≈ 9.99 µg/mL)
CC[C@H](C)[C@@H]1NC(=O)[C@H](C)NC(=O)[C@@H](NC(=O)[C@H](Cc2ccccc2)NC(=O)[C@@H](NC(=O)[C@H](CCCCN)NC(=O)[C@@H]2CCCN2C(=O)[C@H](CC(C)C)NC(=O)[C@@H](N)Cc2ccccc2)[C@@H](C)CC)CSSC[C@@H](C(=O)O)NC(=O)[C@H](CCCCN)NC(=O)[C@H](CCCCN)NC(=O)[C@H]([C@@H](C)O)NC1=O [FLPKIFCAITKKC] |  | ≥ 256 µM | ≥ 512 µM | ≥ 512 µM | ≥ 256 µM | ≥ 256 µM | ≥ 512 µM | > 512 µM | 
CC[C@H](C)[C@H](NC(=O)[C@H](C)NC(=O)[C@H](CC(C)C)NC(=O)[C@H](CCCN=C(N)N)NC(=O)[C@H](CC(C)C)NC(=O)[C@@H](NC(=O)[C@H](CCCN=C(N)N)NC(=O)[C@H](CC(C)C)NC(=O)[C@@H](NC(=O)[C@H](CC(C)C)NC(=O)[C@H](CCCN=C(N)N)NC(=O)[C@H](CCCN=C(N)N)NC(=O)[C@@H](N)CCCCN)[C@@H](C)CC)[C@@H](C)CC)C(=O)N[C@@H](CCCN=C(N)N)C(=O)N[C@@H](C)C(=O)N[C@@H](CC(C)C)C(=O)N[C@H](C(=O)N[C@@H](CCCCN)C(=O)N[C@@H](CCCCN)C(=O)N[C@@H](CCCN=C(N)N)C(N)=O)C(C)C [KRRLILRILRLAIRALVKKR] |  |  |  |  |  |  |  |  | MIC [19]: 0.101 µM (≈ 0.25 µg/mL); MIC [20]: 4.02 µM (≈ 10 µg/mL); MIC [21]: 2.01 µM (≈ 5 µg/mL); MIC [22]: 0.101 µM (≈ 0.25 µg/mL); MIC [23]: 4.02 µM (≈ 10 µg/mL); MIC [24]: 4 µM (≈ 9.94 µg/mL); MIC [25]: 2.01 µM (≈ 5 µg/mL)
CC[C@H](C)[C@H](NC(=O)CNC(=O)[C@H](CO)NC(=O)[C@@H](NC(=O)[C@@H](NC(=O)[C@H](CCCCN)NC(=O)[C@H](C)NC(=O)[C@H](CC(C)C)NC(=O)[C@H](C)NC(=O)CNC(=O)[C@H](CC(C)C)NC(=O)[C@@H](N)Cc1ccccc1)[C@@H](C)CC)[C@@H](C)CC)C(=O)N[C@@H](Cc1ccccc1)C(N)=O [FLGALAKIISGIF] | 4 µM (≈ 5.39 µg/mL) |  |  |  |  |  |  |  | MIC [11]: > 100 µM
CC[C@H](C)[C@@H]1NC(=O)[C@H](C)NC(=O)[C@@H](NC(=O)[C@H](Cc2ccccc2)NC(=O)[C@@H](NC(=O)[C@H](CCCCN)NC(=O)[C@H](CO)NC(=O)[C@H](Cc2ccccc2)NC(=O)[C@@H](NC(=O)[C@H](CC(N)=O)NC(=O)[C@H](C)NC(=O)[C@H](C)NC(=O)[C@@H](NC(=O)[C@H](CO)NC(=O)[C@H](C)NC(=O)[C@@H](NC(=O)[C@@H](NC(=O)[C@@H]2CCCN2C(=O)[C@H](CC(C)C)NC(=O)[C@@H](N)Cc2ccccc2)[C@@H](C)CC)[C@@H](C)CC)C(C)C)C(C)C)[C@@H](C)CC)CSSC[C@@H](C(=O)O)NC(=O)[C@H](CCCCN)NC(=O)[C@H](CCCCN)NC(=O)[C@H](CO)NC1=O [FLPIIASVAANVFSKIFCAISKKC] | 27 µM (≈ 69.4 µg/mL) |  |  |  |  |  |  |  | MIC [10]: 29 µM (≈ 74.5 µg/mL); MIC [11]: 78 µM (≈ 200 µg/mL)

Source: DBAASP
